“Also recorded” adds a separate entry of the source.
Columns and labels:
NASH mice [1] = assay: Example 1: STZ plus high fat diet NASH mouse model, effect of CF102 on liver weight, ALT, TG and liver histology; type: in vivo, Male C57BL/6 mice
Description: Male C57BL/6 mice were used as a murine experimental model.
The A3AR agonist, 2-Chloro-N^6-(3-iodobenzyl)-adenosine-5′-N-methyluronamide (Cl-IB-MECA, referred to herein by the abbreviated name CF102), was synthesized for Can-Fite BioPharma by Albany Molecular Research Inc, Albany. N.Y., USA. CF102 was used in liquid form, dissolved in dimethyl sulfoxide (DMSO), used as the vehicle. Dissolved CF102 and the DMSO vehicle were administered at the same volume.
Male C57BL/6 mice were injected with a single subcutaneous injection of 200 μg streptozotocin (STZ) two days after birth and feeding with high fat diet after 4 weeks of age. […] Treatment was given between 6 weeks of age and 9 weeks of age.
After Study termination, liver weight was measured and Liver-to-Body weight ratio was calculated.
Plasma ALT and liver triglyceride were measured and histological analyses were made on the liver sections for the following: Hematoxylin & Eosin staining for estimation of NAFLD Activity score and Sirius red staining for estimation of fibrosis area.

NASH mice [2] = assay: Example 2: STZ plus high fat diet mouse model, effect of CF102 on NAS score; type: in vivo; details: CF102 200 μg/kg orally thrice daily, 6 to 9 weeks of age; compared to the vehicle
Description: Male mice were injected with 200 μg/animal STZ two days after birth. From 4 weeks of age, the mice were fed with high fat diet. At 6 weeks of age, the mice were randomized into vehicle and CF102 200 μg/kg treatment groups. Treatment was given orally, thrice daily. Termination was performed after 9 weeks. Hematoxylin & Eosin staining was used for estimation of NAFLD Activity.

hepatocyte = details: as disclosed in WO09/050707; cited from earlier work
[3] = Hematoxylin & Eosin liver histology, compared to the Vehicle
[4] = NASH mice, CF102 orally thrice daily from 6 to 9 weeks of age, vs vehicle

**Q.** With CNC(=O)[C@H]1O[C@@H](n2cnc3c(NCc4cccc(I)c4)nc(Cl)nc32)[C@H](O)[C@@H]1O [CF102, 2-Chloro-N^6-(3-iodobenzyl)-adenosine-5′-N-methyluronamide] as the compound, how does the NAFLD activity score (NASH mice [1]; CF102 200 μg/kg, FIG. 4) read?
**A.** decrease in NAFLD activity score

**Q.** What about the “ballooning (liver sections)” value (NASH mice [1]; [3]) of the same compound?
**A.** significant decrease

**Q.** And the “lobular inflammation (liver sections)” value (NASH mice [1]; [3])?
**A.** significant decrease

**Q.** And the “steatosis (liver sections)” value (NASH mice [1]; [3])?
**A.** significant decrease

**Q.** And the liver-to-body weight ratio (NASH mice [1]; NASH livers in mice, CF102 orally thrice daily from 6 to 9 weeks of age, vs vehicle, p=0.05)?
**A.** reduced liver-to-body weight ratio; also recorded: reduction of liver-to-body weight ratio

**Q.** What about the “Triglycerides levels in the liver” value (NASH mice [1]; [4]) of the same compound?
**A.** decrease

**Q.** And the “plasma ALT level” value (NASH mice [1]; [4])?
**A.** decreased ALT levels; also recorded: decrease in plasma ALT level

**Q.** What about the “inflammation NAS (NAFLD Activity Score) score” value (NASH mice [2]) of the same compound?
**A.** reduced the inflammation NAS; also recorded: reducing the inflammation NAS score

**Q.** What about the hepatocyte proliferation (hepatocyte) of the same compound?
**A.** induce hepatocyte proliferation

Source: US10780106B2, “Method for treating NASH accompanied by fibrosis using Cl-IB-MECA” (CAN-FITE BIOPHARMA LTD., priority 2015, dated 2020)
